Experimental data from ChEMBL document CHEMBL2375319, “Design, synthesis and structure-activity relationships of 3,5-diaryl-1H-pyrazoles as inhibitors of arylamine N-acetyltransferase” (Bioorg Med Chem Lett, 2013).
Converted amounts (≈) assume the structure as drawn.

System: Mycobacterium tuberculosis
Assay: Antimycobacterial activity against Mycobacterium bovis BCG after 28 days
Assay type: functional
Settings: variant bovis BCG, 672 h

COc1ccc(-c2cc(-c3cc(OC)ccc3O)[nH]n2)cc1
MIC: 34 µM (≈ 10.1 µg/mL)
